Data on four compounds can be found in US11419852B2, “Beta-lactam compounds or salts thereof for use in long-acting prevention or treatment of a glucose metabolism disorder” (GLYCOLYSIS BIOMED CO., LTD., priority 2019, dated 2022).

What all share (assay type): in vivo
Data set [1] relates to db/db mice. As to the kind of experiment: Oral glucose tolerance test (OGTT). More on the design: OGTT AUC: unit not given here. The note with it: for OGTT AUC: Ex 3: db/db mice, daily dosing 3 weeks at doses of Table 10. The method, then: Four to five weeks old db/db mice (BKS.Cg-Dock7^m+/+Lepr^db/JNarl) and m/m mice (BKS.Cg-Dock7^m+/Dock7^m+) were obtained from National Laboratory Animal Center ([…], Taiwan). […] PMI Nutrition International, Brentwood, Mo.) and water ad libitum. […] Blood was sampled from the tail vein, and FPG levels were measured and recorded as the basic blood glucose levels. […] The total area under the curve (AUC) in OGTT was plotted and calculated by the Area Under Coordinates Program (StatsToDo Server, Department of Obstetrics and Gynecology, Chinese University of Hong Kong).

The subject of data set [2] is db/db mice. As to the kind of experiment: Plasma biochemical parameters (AST, ALT, BUN, Cr, HbA1c).
Experimental: Inflammatory markers such as serum aspartate aminotransferase (AST), alanine aminotransferase (ALT), blood urea nitrogen (BUN), creatinine (Cr), and hemoglobin Alc (HbAlc) were measured using a BMC-Hitachi 717 chemistry auto analyzer.
A short description of data set [3]: Body weight of mice recorded weekly. The note with it: Ex 3: db/db mice, daily dosing 3 weeks at doses of Table 10. The method, then: (§1) Four to five weeks old db/db mice (BKS.Cg-Dock7^m+/+Lepr^db/JNarl) and m/m mice (BKS.Cg-Dock7^m+/Dock7^m+) were obtained from National Laboratory Animal Center ([…], Taiwan). […] PMI Nutrition International, Brentwood, Mo.) and water ad libitum. […] The mouse body weight (bw) and the amounts of water and food intake were recorded weekly for the entire study period.

The nature of data set [4]: Food and water intake of mice. The note with it: for Food intake in db/db mice / Water intake in db/db mice: Ex 3, P<0.05; for Diet intake / Water intake: Ex 3: db/db mice, daily dosing 3 weeks at doses of Table 10. The method, then:
as §1

Setting [5] is: Ex 3, after the treatments had been stopped for 6 weeks.
Where [6] appears, read: Ex 3: db/db mice, daily dosing 3 weeks at doses of Table 10, week 9.

Marks after values point to notes of the source that are not given here.

Consider `CO/N=C(\C(=O)N[C@@H]1C(=O)N2C(C(=O)O)=C(CSc3nc(=O)c(=O)[nH]n3C)CS[C@H]12)c1csc(N)n1` [CEFT, ceftriaxone], for which, in data set [1] (Week 6 (stopped for 3 weeks)), the “OGTT AUC” value was 1276 ± 69^b. For the same compound, the “OGTT AUC” value in data set [1] (Week 9 (stopped for 6 weeks)) is 1483 ± 37^ce. In data set [2] (setting [5]), the “Level of ALT” value is on record as “reduce”, the “Level of AST” value is “reduce”, the “Level of BUN” value is on record as “reduce” and the “Level of Cr” value is given as “reduce”. Also, the “Level of HbA1c” value in data set [2] (setting [5]) is listed as “reduce”. For the same compound, in data set [2] (setting [6]), the ALT was 80 ± 7^bc U/L, the AST was 104 ± 10^ac U/L, the BUN is given as 38 ± 2^bc mg/dL and the Creatinine is 0.428 ± 0.01^b mg/dL. In addition, the HbA1c in data set [2] (setting [6]) is given as 4.9 ± 0.2^c %. Besides, the Body weight in data set [3] (Baseline) was 30.0 ± 1^b. Besides, in data set [3] (Final), the Body weight was 37.8 ± 2^c. For the same compound, the Body weight in data set [3] (Week 3) was 32.9 ± 1^cd. Also, the Body weight in data set [3] (Week 6 (stopped for 3 weeks)) is 34.1 ± 2^b. Moreover, the Body weight in data set [3] (Week 9 (stopped for 6 weeks)) is recorded as 38.8 ± 2^c. Further, in data set [4], the “Food intake in db/db mice” value is on record as “significantly reduced”, the “Water intake in db/db mice” value was “significantly reduced”, the Diet intake is 5.0 ± 1^b g/mice/day and the Water intake is 7.1 ± 1^b mL/mice/day.
For `C[C@@H](O)[C@H]1C(=O)N2C(C(=O)O)=C(S[C@@H]3CN[C@H](C(=O)N(C)C)C3)[C@H](C)[C@H]12` [MER, meropenem hydrate], in data set [1] (Week 6 (stopped for 3 weeks)), the “OGTT AUC” value was 1599 ± 39^c. Further, in data set [1] (Week 9 (stopped for 6 weeks)), the “OGTT AUC” value was 1648 ± 61^def. In addition, in data set [2] (setting [5]), the “Level of AST” value is reported as “reduce”. In data set [2] (setting [6]), the ALT is on record as 89 ± 5^bcd U/L, the AST is recorded as 93 ± 8^ab U/L, the BUN is listed as 43 ± 2^bd mg/dL and the Creatinine is listed as 0.488 ± 0.03^cde mg/dL. Further, the HbA1c in data set [2] (setting [6]) was 6.9 ± 0.3^e %. Moreover, in data set [3] (Baseline), the Body weight is 28.3 ± 1^b. The Body weight in data set [3] (Final) is reported as 36.0 ± 2^bc. Further, the Body weight in data set [3] (Week 3) is given as 33.6 ± 1^cd. The compound also showed a Body weight in data set [3] (Week 6 (stopped for 3 weeks)) of 37.1 ± 1b^c. Moreover, in data set [3] (Week 9 (stopped for 6 weeks)), the Body weight was 38.2 ± 2^c. Further, in data set [4], the Diet intake is listed as 5.9 ± 1^c g/mice/day and the Water intake is 14.7 ± 1^e mL/mice/day.
For the compound `CC1(C)S[C@@H]2[C@H](NC(=O)Cc3ccccc3)C(=O)N2[C@H]1C(=O)O` [PEN, penicillin G], in data set [1] (Ex 3, medications stopped for at least 3 weeks (FIG. 6A, 6B)), the “Regulation of blood glucose homeostasis (OGTT glucose vs G8)” value is reported as “still effective”. For the same compound, the “OGTT AUC” value in data set [1] (Week 6 (stopped for 3 weeks)) is reported as 1088 ± 91^b. Besides, the “OGTT AUC” value in data set [1] (Week 9 (stopped for 6 weeks)) is on record as 1181 ± 69^b. For the same compound, in data set [2] (setting [5]), the “Level of HbA1c” value is recorded as “reduce”. In addition, the HbA1c in data set [2] (setting [6]) is 4.2 ± 0.2^a %. Further, in data set [2] (mouse, in vivo), the ALT is reported as 72 ± 20^ab U/L, the AST is recorded as 169 ± 24^de U/L, the BUN is on record as 41 ± 5^bd mg/dL and the Creatinine is listed as 0.424 ± 0.02^ab mg/dL. In addition, in data set [3] (Baseline), the Body weight was 31.1 ± 1^b. For the same compound, the Body weight in data set [3] (Final) was 32.2 ± 1^b. Also, the Body weight in data set [3] (Week 3) was 25.7 ± 1^b. Also, the Body weight in data set [3] (Week 6 (stopped for 3 weeks)) is listed as 24.6 ± 1^a. The Body weight in data set [3] (Week 9 (stopped for 6 weeks)) is on record as 32.4 ± 1^b. For the same compound, in data set [4], the “Food intake in db/db mice” value is given as “significantly reduced”, the “Water intake in db/db mice” value is on record as “significantly reduced”, the Diet intake was 4.0 ± 0.9^a g/mice/day and the Water intake is recorded as 8.3 ± 4^c mL/mice/day.
Consider tienam, for which, in data set [2] (mouse, in vivo), the ALT was 104 ± 10^cd U/L, the AST is given as 212 ± 43^e U/L, the BUN is recorded as 47 ± 4^d mg/dL and the Creatinine was 0.473 ± 0.05^be mg/dL.
